Earlier results in patent US20100055067A1, “PERFLUOROCARBON CONJUGATE AS A BLOOD SUBSTITUTE” (SNU R&DB Foundation, priority 2008, published 2010).
Where two headings read alike, the source gives them in different places.

Assays:
[1] = relatively low boiling point

FC(F)(F)C(F)(F)C(F)(F)C(F)(F)N(C(F)(F)C(F)(F)C(F)(F)C(F)(F)F)C(F)(F)C(F)(F)C(F)(F)C(F)(F)F [FC-43, perfluorotributylamine]
accumulation in the internal organs (administered to test animals, liver and spleen, resulting in an adverse effect to the animals): accumulate in the internal organs such as liver and spleen for a long period of time

FC1(F)OC(F)(F)C(F)(F)C1(F)F [FX-80, perfluorotetrahydrofuran]
damage to the lung [1]: can cause substantial damage to the lung

FC(OC(F)(F)C(F)(OC(F)(F)C(F)(OC(F)(F)C(F)(OC(F)(F)C(F)(F)C(F)(F)F)C(F)(F)F)C(F)(F)F)C(F)(F)F)C(F)(F)F (stereo not drawn) [Freon E-4, 2-monohydrononacosafluoro-3,6,9,1 2-tetraoxa-5,8,11-trimethylpentadecan]
accumulation in the internal organs (in vivo): accumulate in the internal organs such as liver and spleen for a long period of time
